ChEMBL document CHEMBL4725496, “Escaping from Flatland: Antimalarial Activity of sp-Rich Bridged Pyrrolidine Derivatives” (ACS Med Chem Lett, 2020)

Tested on: not listed separately
Assay: Intrinsic clearance in human liver microsome at 1 uM measured upto 60 mins by LC-MS/MS analysis
Format: ADME
Conditions: microsomes, 1 h

Structure (SMILES)	CLint [µL/min/mg]
O=C(NCC12CC(CN1Cc1ccccc1)C2)c1cc(Cl)cc(C(F)(F)F)c1	27

Tested on: Plasmodium falciparum
Assay: Antimalarial activity against multi-drug-resistant Plasmodium falciparum Dd2 by LDH assay
Format: functional, organism-based
Conditions: not given

Structure (SMILES)	IC50 [µM]
O=C(NCC12CC(CN1Cc1ccccc1)C2)c1cc(Cl)cc(C(F)(F)F)c1	5.4

Tested on: not listed separately
Assay: 1-Octanol/phosphate buffered-saline distribution coefficient, logD of compound in pH 7.4 at 75 uM measured after 2 hrs under shaking condition by LC-MS analysis
Format: physicochemical
Conditions: not given

Structure (SMILES)	logD at 2 h, 75 µM
O=C(NCC12CC(CN1Cc1ccccc1)C2)c1cc(Cl)cc(C(F)(F)F)c1	3.2

Tested on: not listed separately
Assay: Intrinsic clearance in rat hepatocytes at 1 uM incubated upto 90 mins measured per 10^6 cells by LC-MS/MS analysis
Format: ADME, cell-based, Hepatocyte
Conditions: 1.5 h, time 0-90 min

Structure (SMILES)	CLint [µL/min/1e6 cells]
O=C(NCC12CC(CN1Cc1ccccc1)C2)c1cc(Cl)cc(C(F)(F)F)c1	8

Tested on: not listed separately
Assay: Kinetic solubility of compound in PBS buffer measured after 2 hrs under shaking condition by UV spectroscopic analysis
Format: physicochemical
Conditions: read-out: Kinetic_solubility

Structure (SMILES)	solubility kinetic at 2 h [µM]
O=C(NCC12CC(CN1Cc1ccccc1)C2)c1cc(Cl)cc(C(F)(F)F)c1	> 200

Tested on: Plasmodium falciparum
Assay: Antimalarial activity against chloroquine-sensitive Plasmodium falciparum 3D7 infected in human erythrocytes assessed as reduction in parasitemia incubated for 72 hrs by SYBR green dye based fluorescence assay
Format: functional, organism-based
Conditions: 3D7, Erythrocyte

Structure (SMILES)	IC50 [µM]
CC(C)(C)OC(=O)N[C@H](C(=O)NCC12CC(CN1Cc1ccccc1)C2)C1CCCCC1	24
Cc1cc(C(=O)NCC23CC(CN2Cc2ccccc2)C3)no1	3.4
Cc1cc2[nH]c(C(=O)NCC34CC(CN3Cc3ccccc3)C4)cc2o1	11
O=C(Cc1ccc(Br)c(F)c1)NCC12CC(CN1Cc1ccccc1)C2	24
O=C(Cc1cccc(C(F)(F)F)c1)NCC12CC(CN1Cc1ccccc1)C2	22
O=C(Cc1ccc(Cl)c(Cl)c1)NCC12CC(CN1Cc1ccccc1)C2	11
COc1ccc(C(=O)NCC23CC(CN2Cc2ccccc2)C3)cc1Cl	16
O=C(NCC12CC(CN1Cc1ccccc1)C2)c1ccc(-n2cccn2)cc1Cl	19
O=C(NCC12CC(CN1Cc1ccccc1)C2)c1ccc2ccccc2c1	14
COc1cccc2c(C(=O)NCC34CC(CN3Cc3ccccc3)C4)c[nH]c12	19
Cc1ccc(-c2cc(C(=O)NCC34CC(CN3Cc3ccccc3)C4)[nH]n2)o1	15
O=C(NCC12CC(CN1Cc1ccccc1)C2)c1cc(F)c(Cl)c(F)c1	12
O=C(NCC12CC(CN1Cc1ccccc1)C2)c1ccc(OC(F)(F)F)cc1	12.7
O=C(NCC12CC(CN1Cc1ccccc1)C2)c1ccc(Br)s1	12.7
Cc1ccc(Cl)cc1C(=O)NCC12CC(CN1Cc1ccccc1)C2	19
O=C(/C=C/c1ccc(F)cc1)NCC12CC(CN1Cc1ccccc1)C2	13
O=C(/C=C/c1cccc(F)c1)NCC12CC(CN1Cc1ccccc1)C2	22
O=C(/C=C/c1ccccc1F)NCC12CC(CN1Cc1ccccc1)C2	11
O=C(NCC12CC(CN1Cc1ccccc1)C2)c1coc2ccccc12	15
O=C(NCC12CC(CN1Cc1ccccc1)C2)c1cc(Cl)cc(C(F)(F)F)c1	1.3
O=C(NCC12CC(CN1Cc1ccccc1)C2)c1ccc2[nH]ccc2c1	17
O=C(NCC12CC(CN1Cc1ccccc1)C2)c1cc(Br)cs1	22
CSc1ccc(Cl)c(C(=O)NCC23CC(CN2Cc2ccccc2)C3)c1	18
O=C(CCCC1CCCCC1)NCC12CC(CN1Cc1ccccc1)C2	13
O=C(NCC12CC(CN1Cc1ccccc1)C2)c1ccc(F)c(Br)c1	12
Cc1nn(-c2ccccc2)nc1C(=O)NCC12CC(CN1Cc1ccccc1)C2	14
COc1cccc(C(=O)NCC23CC(CN2Cc2ccccc2)C3)c1C	15
O=C(NCC12CC(CN1Cc1ccccc1)C2)c1cccc(Cl)c1	13

Second part, the compound after the results:

IC50 [µM]	Structure (SMILES)
1.6	O=C(NCC12CC(CN1Cc1ccccc1)C2)c1cc2c(Br)cccc2[nH]1
8.7	O=C(NCC12CC(CN1Cc1ccccc1)C2)c1ccc(C(F)(F)F)cc1Cl
9.4	Cc1cc(C(=O)NCC23CC(CN2Cc2ccccc2)C3)ccc1Br
4.5	O=C(NCC12CC(CN1Cc1ccccc1)C2)C1CC1c1cc(Cl)cc(Cl)c1 (configuration not stated)
9	O=C(NCC12CC(CN1Cc1ccccc1)C2)c1ccc2cccc(Br)c2n1
3.3	O=C(NCC12CC(CN1Cc1ccccc1)C2)c1ccc(Cl)c(C(F)(F)F)c1
10	O=C(NCC12CC(CN1Cc1ccccc1)C2)c1ccc(Br)c(F)c1
3.9	O=C(NCC12CC(CN1Cc1ccccc1)C2)c1cc2cc(Br)ccc2o1
3.6	O=C(NCC12CC(CN1Cc1ccccc1)C2)c1ccc(Br)c(Cl)c1
9.4	O=C(NCC12CC(CN1Cc1ccccc1)C2)c1ccc(-c2ccco2)cc1
6.2	COc1ccc(NC(=O)OC(C)(C)C)c(C(=O)NCC23CC(CN2Cc2ccccc2)C3)c1
3.7	O=C(NCC12CC(CN1Cc1ccccc1)C2)c1cc(Br)c(Br)s1
3.6	COc1ccc2cc(C(=O)NCC34CC(CN3Cc3ccccc3)C4)ccc2c1
2.7	O=C(NCC12CC(CN1Cc1ccccc1)C2)c1cc(Br)cc(C(F)(F)F)c1
6.2	O=C(NCC12CC(CN1Cc1ccccc1)C2)C1(c2ccc(Cl)cc2)CCC1
8.5	O=C(NCC12CC(CN1Cc1ccccc1)C2)c1ccc(F)c(Cl)c1
5.8	O=C(/C=C/c1ccccc1Cl)NCC12CC(CN1Cc1ccccc1)C2

IC50 [µM]	Structure (SMILES)
7.2	CC(C)(C)OC(=O)Nc1ccccc1C(=O)NCC12CC(CN1Cc1ccccc1)C2
8.8	O=C(NCC12CC(CN1Cc1ccccc1)C2)c1ccc(Br)cc1Cl
5.1	O=C(NCC12CC(CN1Cc1ccccc1)C2)c1c[nH]c2c(Cl)cccc12
8.5	C=Cc1ccc(C(=O)NCC23CC(CN2Cc2ccccc2)C3)cc1
9.6	COc1ccc(C2(C(=O)NCC34CC(CN3Cc3ccccc3)C4)CCCC2)cc1
7.1	Cn1ccc2ccc(C(=O)NCC34CC(CN3Cc3ccccc3)C4)cc21
1.1	O=C(NCC12CC(CN1Cc1ccccc1)C2)C1(c2ccc(Cl)cc2Cl)CC1
5.5	O=C(NCC12CC(CN1Cc1ccccc1)C2)c1ccc2[nH]nc(Br)c2c1
5.2	O=C(NCC12CC(CN1Cc1ccccc1)C2)c1ccc(Cl)c(Br)c1
5.7	COc1cc(C(=O)NCC23CC(CN2Cc2ccccc2)C3)ccc1Br
6.2	O=C(NCC12CC(CN1Cc1ccccc1)C2)c1ccc(OCc2ccccc2)cc1
9.4	O=C(NCC12CC(CN1Cc1ccccc1)C2)c1cccc(OC(F)(F)F)c1
2.6	CC(C)(C)c1cc(C(=O)NCC23CC(CN2Cc2ccccc2)C3)cc(C(C)(C)C)c1
5.1	O=C(NCC12CC(CN1Cc1ccccc1)C2)c1ccc(Cl)c(Cl)c1
7.4	CCCCCCCCCC(=O)NCC12CC(CN1Cc1ccccc1)C2
8.9	O=C(NCC12CC(CN1Cc1ccccc1)C2)c1cc(F)cc(C(F)(F)F)c1

Tested on: Plasmodium falciparum
Assay: Antimalarial activity against […] Plasmodium falciparum 3D7 by LDH assay
Format: functional, organism-based
Conditions: not given

Structure (SMILES)	IC50 [µM]
O=C(NCC12CC(CN1Cc1ccccc1)C2)c1cc(Cl)cc(C(F)(F)F)c1	4.3

Tested on: Plasmodium falciparum
Assay: Antimalarial activity against chloroquine-sensitive Plasmodium falciparum 3D7 infected in human erythrocytes assessed as reduction in parasitemia at 10 uM incubated for 72 hrs by SYBR green dye based fluorescence assay relative to control
Format: functional
Conditions: 3D7, Erythrocyte

Structure (SMILES)	inhibition at 10 µM [%]
O=C(NCC12CC(CN1Cc1ccccc1)C2)c1ccc(Cl)cc1	38
O=C(NCC12CC(CN1Cc1ccccc1)C2)c1cccc(Br)c1	35
O=C(NCC12CC(CN1Cc1ccccc1)C2)c1cc(F)ccc1F	67
O=C(NCC12CC(CN1Cc1ccccc1)C2)c1ccccc1Cl	-7.9
O=C(NCC12CC(CN1Cc1ccccc1)C2)c1ccccc1	-20
O=C(Cc1ccc(F)c(Br)c1)NCC12CC(CN1Cc1ccccc1)C2	40
O=C(NCC12CC(CN1Cc1ccccc1)C2)c1cccc(Cl)c1Cl	-8.2
Cc1cccc(C(=O)NCC23CC(CN2Cc2ccccc2)C3)c1	7.6
O=C(Cc1cc(F)ccc1F)NCC12CC(CN1Cc1ccccc1)C2	-8.2

Tested on: HepG2
Assay: Cytotoxicity against human HepG2 cells incubated for 72 hrs by Cell Titer Glo assay
Format: cell-based
Conditions: HepG2, 72 h

Structure (SMILES)	IC50 [µM]
O=C(NCC12CC(CN1Cc1ccccc1)C2)c1cc(Cl)cc(C(F)(F)F)c1	> 17
